From patent US20230159484A1, “FLUORESCENT DYES HAVING HIGH STOKES SHIFT, ON THE BASIS OF BRIDGED BENZOPYRYLIUM SALTS” (DYOMICS GmbH, priority 2020, published 2023)
Where “and” joins values, the source holds several entries; their conditions need not be identical. Equal entries are not always repeated.

Tests used:
[1] = UV-Vis absorption (absorption maximum, extinction coefficient); format: physicochemical
Description: (§1) Depending on the basic structure and substitution, the absorption maxima lie in the entire range of visible light, with a focus at 500-530 nm. The compounds show a high Stokes shift in the range of 80 nm. The absorption is measured, for example, at 25° C. in aqueous or ethanolic solutions with an extinction of 1.0 using a Specord 205 from Analytik Jena, wherein the aqueous solutions are preferably phosphate-buffered salt solutions (PBS buffer; approx. 100 mM sodium chloride and 100 mM total phosphate) and have a pH of 7.5. For example, the emission is measured at 25° C. in dilute aqueous or ethanolic solutions with an extinction of 0.1 using a FP-6600 spectrofluorometer from Jasco, wherein the dilute aqueous solutions are preferably phosphate-buffered salt solutions (PBS buffer; about 100 mM sodium chloride and 100 mM total phosphate) and have a pH of 7.5.

[2] = Fluorescence emission (emission maximum); format: physicochemical
Description: as §1

Row | λmax ([1]; UV-Vis in ethanol) | λem ([2]; in ethanol) [nm] | ε ([1]; UV-Vis in ethanol) | ε ([1]; UV-Vis in PBS) | λmax ([1]; UV-Vis in PBS) [nm] | λem ([2]; in PBS) [nm] | Structure (SMILES)
1 | 531 nm | 605 |  |  |  |  | CCOC1=Cc2[o+]c3cc(N(CC)CC)ccc3cc2C(C)(C)C1.F[B-](F)(F)F [Compound 2, 6-ethoxy-N,N-diethyl-8,8-dimethyl-7H-xanthene-10-ium-3-amine tetrafluoroborate]
2 | 532 nm | 603 | 44,000 l/mol*cm | 38,000 l/mol*cm | 526 | 609 | CCN(CCCCCC(=O)O)c1ccc2cc3c([o+]c2c1)C=C(Nc1ccccc1)CC3(C)C.[Cl-] [Compound 13, 6-[(6-anilino-8,8-dimethyl-7H-xanthene-10-ium-3-yl)-ethyl-amino]hexanoic Acid Chloride Salt]
3 | 531 nm | 573 | 34,000 l/mol*cm |  |  |  | CCN(CCCCCC(=O)O)c1ccc2cc3c([o+]c2c1)C=C(Nc1cccc(N(C)C)c1)CC3(C)C.[Cl-] [Compound 26, 6-[[6-[3-(dimethylamino)anilino]-8,8-dimethyl-7H-xanthene-10-ium-3-yl]-ethyl-amino]hexanoic Acid Chloride Salt]

Second part, the compound before the results:

Row | Structure (SMILES) | λmax ([1]; UV-Vis in ethanol) | λem ([2]; in ethanol) [nm] | ε ([1]; UV-Vis in ethanol) | ε ([1]; UV-Vis in PBS) | λmax ([1]; UV-Vis in PBS) [nm] | λem ([2]; in PBS) [nm]
4 | CC1(C)CC(NCCCS(=O)(=O)[O-])=Cc2[o+]c3cc(N(CCCCCC(=O)ON4C(=O)CCC4=O)CCCS(=O)(=O)[O-])ccc3cc21.[Na+] [Compound 6, 3-[[6-[[6-(2,5-dioxopyrrolidine-1-yl)oxy-6-oxo-hexyl]-(3-sulfonatopropyl)amino]-1,1-dimethyl-2H-xanthene-10-ium-3-yl]amino]propane-1-sulfonate Sodium Salt] | 512 nm | 570 | 44,000 l/mol*cm |  |  | 
5 | CCN(CCCCCC(=O)O)c1ccc2cc3c([o+]c2c1)C=C(Nc1ccc2cc(S(=O)(=O)[O-])ccc2c1)CC3(C)C [Compound 15, 6-[[6-[5-carboxypentyl(ethyl)amino]-1,1-dimethyl-2H-xanthene-10-ium-3-yl]amino]naphthalene-2-sulfonate] | 546 nm | 619 | 32,000 l/mol*cm |  |  | 
6 | CN(C1=Cc2[o+]c3cc(OCCCCCC(=O)O)ccc3cc2C(C)(C)C1)c1ccccc1.[Cl-] [Compound 18, 6-[[8,8-dimethyl-6-(N-methylanilino)-7H-xanthene-10-ium-3-yl]oxy]hexanoic Acid Chloride Salt] | 452 nm and 469 nm | 520 |  |  |  | 
7 | CN(C1=Cc2[o+]c3cc(OCCCCCC(=O)O)c(S(=O)(=O)[O-])cc3cc2C(C)(C)C1)c1ccc(S(=O)(=O)[O-])cc1.[Na+] [Compound 19, 3-(5-carboxypentoxy)-8,8-dimethyl-6-(N-methyl-4-sulfonato-anilino)-7H-xanthene-10-ium-2-sulfonate Sodium Salt] | 465 nm | 522 | 18,000 l/mol*cm | 16500 L/mol/cm | 460 | 509
8 | CC1=CC(C)(C)N(CCCS(=O)(=O)[O-])c2cc3[o+]c4c(cc3cc21)C(C)(C)CC(NCCCCCC(=O)O)=C4 [Compound 22, 3-[9-(5-carboxypentylamino)-2,2,4,7,7-pentamethyl-8H-chromeno[3,2-g]quinolin-11-ium-1-yl]propane-1-sulfonate] | 531 nm | 589 | 39,000 l/mol*cm | 37500 L/mol/cm | 516 | 590
9 | CCN(CCCCCC(=O)O)c1ccc2cc3c([o+]c2c1)C=C(Nc1ccc(N)cc1)CC3(C)C.[Cl-] [Compound 27, 6-[[6-(4-aminoanilino)-8,8-dimethyl-7H-xanthene-10-ium-3-yl]-ethyl-amino]hexanoic Acid Chloride Salt] | 530 nm | 612 | 35,000 l/mol*cm |  |  | 
10 | CCN(CCCCCC(=O)O)c1ccc2cc3c([o+]c2c1)C=C(N(Cc1ccccn1)Cc1ccccn1)CC3(C)C.[Cl-] [Compound 28, 6-[[6-[bis(2-pyridylmethyl)amino]-8,8-dimethyl-7H-xanthene-10-ium-3-yl]-ethyl-amino]hexanoic Acid Chloride Salt] | 531 nm | 593 | 28,000 l/mol*cm |  |  | 
